Experimental findings from patent publication US12084472B2 (Ardelyx, Inc., priority 2015, dated 2024) are described below.

Marks after values point to notes of the source that are not given here. Bounds are passed on as bounds.

In assay [1] the test system is mice with DSS-induced colitis. The experiment in a line: Inflammatory bowel disease model (DSS colitis): DAI, colon length, cytokines, histology. The class given is in vivo, C57BL/6 female mice. The note with it: I-389 30 mg/kg PO BID. The method, then:
Six week old C57BL/6 female, were acclimated for 2 days. Starting on Day −2, 5 groups of mice were dosed PO (mL/kg) BID with 1) vehicle (10% HPCD); 2) vehicle; 3) vehicle; mice had sitagliptin (3.6 g/L for a dose of ˜800 mg/kg/day) added to their drinking water; 4) I-389 30 mg/kg; or 5) I-389 30 mg/kg; mice had sitagliptin (3.6 g/L for a dose of 800 mg/kg/day) added to their drinking water. On Day 0, mice in groups 2-5 were put on drinking water containing 1.5% DSS to induce colitis. Note: Groups 3 & 5 were on drinking water containing both DSS and sitagliptin. On Day 7, mice were taken off of DSS treatment and received either regular drinking water (Groups 1, 2, and 4) or drinking water with sitagliptin (Groups 3 and 5). On Day 8, mice were transferred to a separate container for DAI scoring which consists of evaluation of stool consistency, blood in stool, incidence of rectal prolapse, and body condition according to the scoring system shown in Table 19. The DAI score is a summation of each individual score in each category (columns) for a single animal. Mice were euthanized, blood was collected for plasma, colons were removed for length measurement, cytokine analysis, and histological staining, pathological analysis and scoring of colonic tissue damage. Colonic tissue damage was scored according to observed microscopic changes based on the following schema: 0=no significant change, 1=minimal, 2=mild, 3=moderate and 4=severe. Parametric data for each group are presented as mean±SEM. Statistical analysis was performed using one-way ANOVA followed by Holm-Sidak's multiple comparisons test. Statistical significance versus DSS/vehicle is marked as *, P<0.05; **, P<0.01, ***, P<0.001, and ****, P<0.0001. Statistical significance versus DSS/I-389 is marked as †††, P<0.001. Non-parametric data for each group is shown as a dot blot with median (line). Statistical analysis was performed using Kruskal-Wallis test followed by Dunn's test to detect differences between groups.

Assay [2] has as its system small intestine and colon of mice. The experiment in a line: Small intestine and colon weight, villus/crypt length, colon crypt depth, plasma GLP-1 and GLP-2 in mice. The class given is in vivo, CD-1 female mice. The note with it: ten consecutive days. The method, then:
Tedulgutide (a GLP-2 receptor agonist; American Peptide, catalog #304076, supplied by Bachem) 50 μg/kg in […] was injected SC in a control group BID during the same period. […] The small intestine and colon were collected, flushed with cold PBS to remove contests, patted dry, weighed and further trimmed for histological analysis. Morphometric analysis was performed to determine the villus/crypt length in the proximal jejunum and distal ileum and crypt depth (length) in the proximal colon.
Data for each group are presented as mean±SEM. Statistical analyses were performed using one-way ANOVA followed by Holm-Sidak's multiple comparisons test. Statistical significance compared to vehicle (WD) is marked as *, P<0.05; **, P<0.01, ***, P<0.001, and ****, P<0.0001.

For assay [3], the system named is mice with 5-FU-induced diarrhea. The experiment in a line: Chemotherapy-induced diarrhea model (5-FU), fecal form score. It is filed as in vivo, CD-1 female mice. The note with it: 5-FU 60 mg/kg IP days 5-11; I-388 30 mg/kg PO BID, teduglutide 0.4 mg/kg SQ BID, days 1-13; FFS days 11-13 summed; FIG. 1. The method, then:
Four groups of adult CD-1 female mice on regular chow were dosed with the following BID starting on Day 1: 2 groups, vehicle (10% hydroxypropyl-β-cyclodextrin in PBS; PO; 5 mL/kg); 1 group, Compound I-388 at 30 mg/kg in vehicle (PO; 5 mL/kg); and 1 group, teduglutide 0.4 mg/kg (American Peptide, Sunnyvale, CA; reconstituted in PBS; SQ; 10 mL/kg) 0.4 mg/kg SQ. On Days 5-11, the groups of mice were also given QD IP injections (5 mL/kg) of the following treatments: first vehicle group, PBS and remaining groups, 5-fluorouracil (5-FU) 60 mg/kg (Fresenius Kabi USA, Lake Zurich, IL) diluted in PBS to induce mucositis with diarrhea. Body weight was measured throughout the study and fecal form was scored on Day 11-13 of the study according to the following scale: 0, normal stool; 1, slightly wet and soft stool; 2, wet and unformed stool with moderate perianal staining of the coat; 3, watery stool with severe perianal staining of the coat.
All mice were dosed on day 1-13 with vehicle, with 0.4 mg/kg of teduglutide, or with 30 mg/kg of compound I-388 (vehicle and Cmpd. I-388: PO, […] and teduglutide: SQ, 10 mL/kg). PBS or 5-FU at 60 mg/kg (used to induce mucositis and diarrhea) were administered interperionally (IP; 5 mL/kg) on days 5-11.

For assay [4], the target named is T1, human TGR5 (Homo sapiens, UniProt Q8TDU6).
T1 construct: expressed in transfected cells; host or cells: HEK293
T1 sequence (Q8TDU6 1-330): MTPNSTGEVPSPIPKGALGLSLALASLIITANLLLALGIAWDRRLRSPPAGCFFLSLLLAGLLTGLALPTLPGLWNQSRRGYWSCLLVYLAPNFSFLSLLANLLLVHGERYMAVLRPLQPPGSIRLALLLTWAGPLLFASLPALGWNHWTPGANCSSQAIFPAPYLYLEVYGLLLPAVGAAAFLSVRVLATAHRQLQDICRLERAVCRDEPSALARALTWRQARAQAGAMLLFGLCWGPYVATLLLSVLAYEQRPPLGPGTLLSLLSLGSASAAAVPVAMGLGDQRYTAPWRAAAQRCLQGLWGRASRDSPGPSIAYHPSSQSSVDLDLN
The experiment in a line: Cell-based TGR5 assay (cAMP generation, HTRF). The note with it: HEK293 cells stably transfected with human TGR5; cAMP by HTRF; 30 minutes at 37° C.; read-out: pEC50 Human TGR5 (converted). In outline: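 Read-out was HTRF detection of cAMP, converted to concentration via a standard curve and fitted (3-parameter logistic) for pEC50 and maximal response. Agonist stimulation used HEK293 cells stably transfected with human TGR5, incubated 30 min at 37° C in IBMX-containing buffer at 0.05 nM to 10 μM compound.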
(In general: TR-FRET usually uses a lanthanide donor and a delayed reading to cut background.)

Assay [5] deals with Western diet (WD)-fed mice. The experiment in a line: Mouse model of NAFLD and mild diabetes, Western diet (WD)-fed mice: glucose, insulin, liver lipids, GLP levels. The class given is in vivo, C57BL/6 male mice. The note with it: Western diet, liraglutide 0.4 mg/kg BID SQ, I-389 30 mg/kg BID PO, linagliptin 10 mg/kg QD PO, mean±SEM. The method, then: Seven week old C57BL/6 male mice were housed 5/cage. Two cages of mice were put on normal chow (Harlan Teklad 2018), and the remaining cages of mice were put on WD (Harlan Teklad, TD.88137, […]/0.2% cholesterol) to induce NAFLD. After 10 weeks, mice were weighed and fasted for 4 h. Blood was collected to measure fasting glucose levels, processed to plasma for measurement of insulin, triglycerides and total cholesterol. This process was repeated on Day 29 of treatment. Based on body weight and fasted glucose and insulin levels, mice were divided into 5 treatment groups (n=10/group), Table 20. […] Mice were weighed twice weekly throughout the study. On the last day of the study (Day 30, 8 hours after food removal), mice were euthanized. Blood was collected in tubes with inhibitors to block DPP-4 activity and processed to plasma for measurement of liver enzymes and GLP levels using an Ace Alera clinical analyzer and the Multi-Array Assay System from Meso Scale Discovery, respectively. The entire liver was collected, weighed, and a sample was taken and weighed for measurement of triglycerides and total cholesterol.
Data for each group are presented as mean±SEM. Statistical analyses were performed using one-way ANOVA followed by Holm-Sidak's multiple comparisons test. For GLP levels, <statistical significance compared to vehicle (WD) is marked as *, P<0.05; **, P<0.01, ***, P<0.001, and ****, P<0.0001; of linagliptin (WD) versus I-389 alone (WD) or linaglptin+I-389 (WD) is marked as †, P<0.05; ††, P<0.01, of †††, P<0.001, and ††††, P<0.0001; and of I-389 (WD) versus linagliptin (WD)+I-389 (WD) is marked as ^, P<0.05; ^ ^P<0.01, ^ ^^P, P<0.001, and ^ ^^^, P<0.0001. For the remaining parameters, statistical significance compared to vehicle (WD) is marked as *, P<0.05; **, P<0.01, ***, P<0.001, and ****, P<0.0001.

Consider `N[C@@H](CC(=O)N1CCn2c(nnc2C(F)(F)F)C1)Cc1cc(F)c(F)cc1F` [sitagliptin], for which the DSS-induced colonic damage entry in assay [1] (1.5% DSS in drinking water, sitagliptin 3.6 g/L in drinking water (~800 mg/kg/day)) was “partially abrogated”. For the same molecule, the “disease activity score (DAI)” value in assay [1] (Day 8, 1.5% DSS, sitagliptin ~800 mg/kg/day in drinking water, vehicle/DSS 5.6, FIG. 2) is on record as 3.0. The molecule further came in with a colon length in assay [1] (Day 8, 1.5% DSS, sitagliptin ~800 mg/kg/day, mean±SEM, vehicle/DSS 4.7±0.1, FIG. 3) of 5.6±0.2 cm.
As to `CC[C@H](C)[C@H](NC(=O)[C@H](Cc1ccccc1)NC(=O)[C@H](CC(=O)O)NC(=O)[C@H](CCCNC(=N)N)NC(=O)[C@H](C)NC(=O)[C@H](C)NC(=O)[C@H](CC(C)C)NC(=O)[C@H](CC(N)=O)NC(=O)[C@H](CC(=O)O)NC(=O)[C@H](CC(C)C)NC(=O)[C@@H](NC(=O)[C@@H](NC(=O)[C@H](CC(N)=O)NC(=O)[C@H](CCSC)NC(=O)[C@H](CCC(=O)O)NC(=O)[C@H](CC(=O)O)NC(=O)[C@H](CO)NC(=O)[C@H](Cc1ccccc1)NC(=O)[C@H](CO)NC(=O)CNC(=O)[C@H](CC(=O)O)NC(=O)CNC(=O)[C@@H](N)Cc1c[nH]cn1)[C@@H](C)O)[C@@H](C)CC)C(=O)N[C@@H](CC(N)=O)C(=O)N[C@@H](Cc1c[nH]c2ccccc12)C(=O)N[C@@H](CC(C)C)C(=O)N[C@H](C(=O)N[C@@H](CCC(N)=O)C(=O)N[C@H](C(=O)N[C@@H](CCCCN)C(=O)N[C@H](C(=O)N[C@H](C(=O)N[C@@H](CC(=O)O)C(=O)O)[C@@H](C)O)[C@@H](C)CC)[C@@H](C)O)[C@@H](C)CC` [teduglutide], the “increase of colon weight” value in assay [2] (teduglutide 50 μg/kg SC BID (trend), I-389 100 mg/kg PO BID co-dosed with sitagliptin 3.6 g/L in drinking water, FIG. 7, FIG. 8) amounted to 14%. In addition, the “increase of small intestine weight” value in assay [2] (teduglutide 50 μg/kg SC BID, FIG. 7) is 48%. Also, the “increase of villus-crypt length in the proximal jejunum” value in assay [2] (teduglutide 50 μg/kg SC BID, I-389 100 mg/kg PO BID + sitagliptin, FIG. 9) worked out at 55%. For the same molecule, the “increase of villus-crypt length in the distal ileum” value in assay [2] (teduglutide 50 μg/kg SC BID, I-389 100 mg/kg PO BID + sitagliptin, FIG. 10) worked out at 30%. Moreover, the “cumulative fecal form score (FFS)” value in assay [3] is “significantly improved”.
`O=C(NCCCCNS(=O)(=O)c1ccc(Cl)c(COC2(c3cnccc3-c3ccccc3OC3CC3)CC2)c1)[C@@H](O)[C@@H](O)[C@H](O)[C@@H](O)CO` [Compound I-388, (2S,3S,4R,5S)-N-(4-[[4-chloro-3-([1-[4-(2-cyclopropoxyphenyl)pyridin-3-yl]cyclopropoxy]methyl)benzene]sulfonamido]butyl)-2,3,4,5,6-pentahydroxyhexanamide]: the EC50 in assay [4] is < 100 nM. Moreover, in assay [3], the “cumulative fecal form score (FFS)” value is “significantly improved”.
For `CC#CCn1c(N2CCC[C@@H](N)C2)nc2c1c(=O)n(Cc1nc(C)c3ccccc3n1)c(=O)n2C` [Linagliptin, linagliptin, reference compound], the Liver weight in assay [5] (vehicle WD 2.13 ± 0.14) was 1.77 ± 0.11* g. The 4-h fasted insulin in assay [5] (vehicle WD 2.3 ± 0.3) was 1.4 ± 0.2** ng/mL. In addition, the Hepatic cholesterol in assay [5] (vehicle WD 8.56 ± 0.25) was 10.17 ± 0.21*** mg/g. This molecule had a Hepatic triglycerides in assay [5] (vehicle WD 145.40 ± 14.80) of 117.90 ± 6.76 mg/g. Also, the 4-h fasted glucose in assay [5] (vehicle WD 239 ± 13) is 185 ± 6** mg/dL.
